The values below come from the METLIN SMRT retention time set (Domingo-Almenara et al. 2019).

The nature of this data set: gradient 5% acetonitrile 3 min, to 50% in 2 min, to 85% in 15 min, held 3 min, 100 µL/min. Particulars: column: Zorbax Extend-C18 2.1 x 50 mm; eluents: water / acetonitrile, 0.1% formic acid. The procedure, abridged:
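The mobile phases were water and acetonitrile, each with 0.1% formic acid, pumped at 100 μL/min through a Zorbax Extend-C18 column (2.1 × 50 mm, 1.8 μm). Pure standards were injected as mixtures of ~100 molecules and detected by a quadrupole time-of-flight mass spectrometer in positive and negative ionization mode. Retention time came from computationally picked adduct peaks, each inspected by hand.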
The compound `Cc1onc2c(=O)n(CC(=O)N3CCN(c4ccccn4)CC3)nc(-c3ccc(Cl)cc3)c12` displayed an RP-LC retention time of 693 s.
As for `Cn1c(=O)n(C)c2cc(S(=O)(=O)c3ccc(F)cc3)c(NC(=O)c3ccc(F)cc3)cc21`, the RP-LC retention time stood at 899 s.
The compound `Cc1ccc(-c2ccc(=O)n(C(C)C(=O)O)n2)cc1` (stereo not drawn) yielded an RP-LC retention time of 684 s.
Take `Cc1cccn2c(Nc3ccc4c(c3)OCCO4)c(-c3cccc(Cl)c3)nc12`: the RP-LC retention time came out at 727 s.
With `COc1ccc(CNC(=O)CN2C(=O)NC(c3ccc(Cl)cc3)C3=C2COC3=O)cc1` (stereo not drawn), the RP-LC retention time worked out at 780 s.
With `CC(C)N1C(=O)Cc2ccccc2C1C(=O)NCc1ccco1` (stereo not drawn), the RP-LC retention time stood at 720 s.
`Cc1cccc(S(=O)(=O)N2CCC(CN3CCCCCC3)CC2)c1` registered an RP-LC retention time of 672 s.
In turn, `CC(=O)CC(c1ccccc1)C1C(=O)Oc2ccccc2C1=O` (stereo not drawn) yielded an RP-LC retention time of 1000 s.
In the case of `O=C(NC1CC1)C1CCCN(C(=O)c2ccoc2)C1` (stereo not drawn), the RP-LC retention time turned out to be 584 s.
For the compound `Cc1nc2cc(-c3noc(COc4ccccc4)n3)ccc2n(C2CCCC2)c1=O`, the RP-LC retention time was 1200 s.
As for `Cc1cc2nn(CC(=O)N(C)c3ccccc3)c(=O)n2c(Nc2ccc(F)cc2)n1`, the figure is 1010 s; as for `CCCN1CCN(c2cc(C(=O)O)c3cc(NC(=O)c4ccc(Br)cc4)ccc3n2)CC1`, 628 s; as for `CCOC(=O)C1=C(C)NC2=C(C(=O)CC(C)(C)C2)C1c1ccc([N+](=O)[O-])cc1` (stereo not drawn), 832 s.
Turning to `Cc1cccn2c(Nc3ccccc3)c(-c3ccc(N4CCOCC4)cc3)nc12`, the RP-LC retention time was 684 s.
`Cc1ccccc1-c1nnc(CSc2nnc(NC(=O)c3ccc(C(F)(F)F)cc3)s2)o1` had an RP-LC retention time of 1050 s.
In turn, `Cc1cc(NS(=O)(=O)c2ccc(Nc3nc(-c4ccc(Cl)c(Cl)c4)cs3)cc2)no1` came in with an RP-LC retention time of 1130 s.
Take `CCOc1cccc(-c2noc(-c3nnn(Cc4nc(-c5ccccc5OC)oc4C)c3C)n2)c1`: the RP-LC retention time worked out at 1190 s.
Under `COc1ccc(-c2nnc(Cc3nc(-c4ccc(Cl)cc4)no3)o2)cc1OC` stands 990 s.
With `CCOC(=O)c1sc(NC(=O)c2ccco2)nc1-c1ccccc1`, the RP-LC retention time is 899 s.
Compound `O=C(N[C@@H]1CN(c2ccncn2)C[C@H]1CO)c1nccc2ccccc12` had an RP-LC retention time of 581 s.
Under `CC(C)S(=O)(=O)Nc1ccc2c(c1)CN(C(=O)c1ccco1)CC2` stands 685 s.
Regarding `CC(CNC(=O)C1CCN(S(=O)(=O)c2ccc3c(c2)NC(=O)CO3)CC1)c1ccccc1` (stereo not drawn), the RP-LC retention time was determined as 792 s.
`CCOc1nc2ccccc2nc1N1CCCC(C(=O)Nc2ccc(Cl)cc2C)C1` (stereo not drawn): the RP-LC retention time was determined as 1300 s.
Under `COc1ccc(CNC(=O)C2CCCN(c3cc(=O)n(C)c(=O)n3C)C2)cc1` (stereo not drawn) stands 663 s; under `Cc1ccc(CNC(=O)Cn2c(=O)c3nnc(C)n3c3ncccc32)cc1`, 692 s.
Regarding `COc1ccc(OC)c(NC(=O)C2CC(=O)N(CCc3c[nH]c4ccc(Cl)cc34)C2)c1` (stereo not drawn), the RP-LC retention time amounted to 849 s.
Compound `COc1ccc(Cl)cc1NC(=O)c1cc(S(=O)(=O)N2CCC(C)CC2)cn1C` displayed an RP-LC retention time of 1210 s.
Under `CC(C)CN(CC(C)C)c1nc(-c2ccc([N+](=O)[O-])cc2)nc2ccccc12` stands 1250 s; under `O=C(CCc1ccccc1)NCCc1c[nH]c2ccc(Cl)cc12`, 895 s.
The compound `Cc1sc(NC(=O)C(C)(C)C)nc1-c1ccc2c(c1)NC(=O)CO2` yielded an RP-LC retention time of 830 s.
Regarding `CCC1CN(C(=O)N2CCC(C(=O)NCCCN3CCCC3)CC2)c2ccccc2O1` (stereo not drawn), the RP-LC retention time turned out to be 627 s.
Under `COc1ccc(NC(=O)c2cn(-c3cc(N4CCCC(C)C4)ncn3)cn2)c(OC)c1` (stereo not drawn) stands 1170 s.
As for `Cc1noc(-c2cccc(OC3CN(C(=O)c4sccc4C)C3)c2)n1`, the figure is 900 s; as for `O=C(Cc1cccs1)N1CCc2cc(-c3ccno3)ccc21`, 919 s; as for `O=C(N[C@@H]1CN(c2ncccn2)C[C@H]1CO)c1ccc(F)cn1`, 595 s.
Regarding `CC(C)CCNC(=O)c1ccc(-c2nc3cccnc3n2C2CCCCC2)cc1`, the RP-LC retention time turned out to be 1020 s.
`CCn1c(=O)sc2cc(S(=O)(=O)N3CCC(C(=O)Nc4cccc5c4CCCC5)CC3)ccc21` had an RP-LC retention time of 1010 s.
Regarding `O=C(c1ccn[nH]1)N1CCCC(Cn2c(C3CC3)nc3cccnc32)C1` (stereo not drawn), the RP-LC retention time stood at 578 s.
`Cc1cc(=O)oc2c(C)c(OCC(O)CN3CCN(c4ccccn4)CC3)ccc12` (stereo not drawn) came in with an RP-LC retention time of 572 s.
`O=C1N(c2cccc(Cl)c2)c2ncccc2S(=O)(=O)N1Cc1ccccc1` yielded an RP-LC retention time of 1100 s.
The compound `Cc1nc(-c2noc(-c3ccc(F)cc3)n2)cn1CC(=O)Nc1ccccc1` came in with an RP-LC retention time of 836 s.
Under `COc1ccc(-n2c(=O)c(C(=O)Nc3ccc(OC)c(F)c3)c(O)c3cccnc32)cc1` stands 1200 s.
As for `Cc1nc2cc(-c3noc(COc4ccccc4C)n3)ccc2o1`, the figure is 1100 s; as for `O=c1c(NCCc2ccccn2)nc2ccncc2n1Cc1ccccc1`, 551 s; as for `Cc1ccc(CN2CCN(C3CCN(C(=O)NCc4ccc(F)cc4)CC3)C(=O)C2=O)cc1`, 767 s.
Under `COc1ccc(-c2cc(C(=O)Nc3cc(C)ccc3C)nn2C2CCS(=O)(=O)C2)cc1` (stereo not drawn) stands 982 s; under `Cc1nn(-c2ccc(N3CCOCC3)nn2)c(C)c1CCC(=O)Nc1ccc(F)cc1F`, 719 s; under `COc1ccc(C2(c3nc(C4CC(=O)N(c5ccc(C)cc5)C4)no3)CC2)cc1` (stereo not drawn), 1060 s.
The compound `CC(=O)Nc1ccc(S(=O)(=O)NCc2nc(C)no2)cc1` yielded an RP-LC retention time of 599 s.
In turn, `NC(=O)c1c(NC(=O)c2ccc(Br)s2)sc2c1CCCCC2` yielded an RP-LC retention time of 1040 s.
`COc1cc(C(=O)N2CCC(CC(=O)NC3CC3)CC2)cc(OC)c1OC` registered an RP-LC retention time of 647 s.
`COc1ccc(-c2noc(-c3nnn4c3COC(c3ccc(C)cc3C)C4)n2)cc1` (stereo not drawn): the RP-LC retention time amounted to 1250 s.
In turn, `COC(=O)CN1CN(c2ccc(C)cc2)c2ncccc2S1(=O)=O` yielded an RP-LC retention time of 894 s.
For `CC(C)CCNC(=O)C1(C)CN(S(=O)(=O)c2ccccc2)CC(=O)N1Cc1ccc(Cl)cc1` (stereo not drawn), the RP-LC retention time is 1040 s.
Take `COC(=O)C1=CN(c2ccc(Cl)cc2)c2ccccc2S1(=O)=O`: the RP-LC retention time worked out at 864 s.
In turn, `NC(=O)/C(=C\c1ccncc1)c1cccc2ccccc12` came in with an RP-LC retention time of 647 s.
Take `COc1ccc(OC)c(S(=O)(=O)N2CCC(Cn3c(C)cnc3C)C2)c1` (stereo not drawn): the RP-LC retention time amounted to 626 s.
For `Cc1ccc(-n2cc3c(N4CCCC(C(=O)NCc5ccccc5C(F)(F)F)C4)ncnc3n2)cc1` (stereo not drawn), the RP-LC retention time came out at 775 s.
Compound `COc1ccc(-n2nc(C(F)(F)F)cc2-c2ccc(Cl)cc2)cc1` displayed an RP-LC retention time of 1250 s.
The compound `CCC(=O)N1c2ccc(S(=O)(=O)N3CCCCC3)cc2CC1C(=O)NCCCc1ccccc1` (stereo not drawn) gave an RP-LC retention time of 977 s.
`CCc1ccc(NS(=O)(=O)c2c(C)sc(C)c2-c2n[nH]c(C)c2C)cc1` came in with an RP-LC retention time of 1200 s.
As for `CCOC(=O)N1CCC(NC(=O)c2coc(NC(=O)c3ccco3)n2)CC1`, the figure is 605 s.
Take `O=C(c1ccco1)N1c2ccccc2CC1c1nnc(C2CCOCC2)o1` (stereo not drawn): the RP-LC retention time stood at 729 s.
`O=S(=O)(c1ccc(-c2cnc(C3CCCC3)o2)s1)N1CCN(c2ncccn2)CC1` came in with an RP-LC retention time of 1120 s.
Turning to `Cc1ccc(CNC(=O)c2cn(-c3ccc(NC(=O)C4CC4)cn3)cn2)cc1C`, the RP-LC retention time turned out to be 818 s.
The compound `CCS(=O)(=O)N1CCOc2ccc(CCC(=O)NC3CC3)cc2C1` yielded an RP-LC retention time of 675 s.
The compound `COc1ccc(C(=O)Nc2nccnc2C(=O)NCC2CCCCC2)cc1` gave an RP-LC retention time of 1120 s.
`COCCN(CC1(C)CCOCC1)C(=O)NCc1cccc(F)c1` came in with an RP-LC retention time of 768 s.
In the case of `COc1ccc(NC(=O)N2CCCC2c2nc(-c3ccc(OC)cc3)no2)cc1` (stereo not drawn), the RP-LC retention time turned out to be 876 s.
`O=C(N[C@H]1C[C@@H]2C[C@H]1N(C(=O)c1ccccc1OC(F)(F)F)C2)c1cccnc1`: the RP-LC retention time is 641 s.
Under `O=C(CCc1c[nH]c2ccccc12)N1[C@H]2CC[C@@H]1c1cnc(-c3ccccc3)nc1C2` stands 884 s; under `CCc1ccc(-n2c(CN3CCN(C(=O)NCCCOC)CC3)nc3cccnc32)cc1`, 634 s.
Turning to `CC1CN=C2C=C(N3CCN(C(=O)Nc4ccccc4C(F)(F)F)CC3)N=CN21` (stereo not drawn), the RP-LC retention time was determined as 615 s.
The compound `CCOc1ccc(N2C(=O)C3N=NN(Cc4nc(-c5ccc(Cl)cc5)no4)C3C2=O)cc1` (stereo not drawn) displayed an RP-LC retention time of 722 s.
`CCOc1ccc(NC(=O)Cn2ccc3ccc(-c4nnc(C)o4)cc32)cc1` came in with an RP-LC retention time of 804 s.
`Clc1nccc2c1ccc1ccccc12` had an RP-LC retention time of 1140 s.
Under `Cc1nc(OCC(=O)Nc2ccc(F)cc2)c2ccccc2n1` stands 709 s; under `CCCc1nc(C(C)(C)O)c(C(=O)OCc2oc(=O)oc2C)n1Cc1ccc(-c2ccccc2-c2nn[nH]n2)cc1`, 832 s.
